Results as given in patent publication US3966951A, “Esters of quinoxaline-1,4-dioxides” (Pfizer Inc., priority 1975, dated 1976).
≈ marks a conversion by molar mass, not a printed value.

Experiments:
[1] = system: Staph. aureus 01A005; assay: in vitro MIC, Inocula Replicating Device, anaerobic Gas Pac, BHI agar; format: cell-based; details: unit assumed
[2] = system: Staph. aureus 01A106; assay: as above; format: cell-based; details: unit assumed
[3] = system: E. Coli 51A-266; assay: as above; format: cell-based; details: unit assumed
[4] = system: E. Coli 51A-218; assay: as above; format: cell-based; details: unit assumed
[5] = system: Strep. pyogen 02C203; assay: as above; format: cell-based; details: unit assumed
[6] = system: Strep. equi 021001; assay: as above; format: cell-based; details: unit assumed
[7] = system: Strep. zoo 02-H001; assay: as above; format: cell-based; details: unit assumed
[8] = system: Sal. typhim 58D011; assay: as above; format: cell-based; details: unit assumed
[9] = system: Sal. dublin 58U001; assay: as above; format: cell-based; details: unit assumed
[10] = system: Sal. cholsu 58B242; assay: as above; format: cell-based; details: unit assumed
[11] = system: Aer. hydro 72B001; assay: as above; format: cell-based; details: unit assumed
[12] = system: Past. mult 59A004; assay: as above; format: cell-based; details: unit assumed
[13] = system: Past. mult 59A006; assay: as above; format: cell-based; details: unit assumed
[14] = system: Treponema hyodysenteriae; assay: MIC against Treponema hyodysenteriae on bovine blood/tryptose agar; format: cell-based; details: about 5% bovine blood, about 3% tryptose agar, unit assumed
Experimental: MIC's against Treponema hyodysenteriae were determined by spreading appropriate dilutions of the microorganism on a growth medium containing about 5% bovine blood and about 3% tryptose agar.

[15] = system: E. Coli 51A266; assay: acute systemic infection in mice, PD50; format: in vivo; details: Escherichia coli, 0.5, 4 and 24 h after inoculation, ± is 95% confidence
Experimental: (§1) Acute systemic infections in mice have been used to evaluate the in vivo therapeutic activity of Compound 10. These infections are produced by the intraperitoneal injection of standard cultures suspended in hog gastric mucin. Treatment was initiated 0.5 hours after inoculation with the infecting organism and two subsequent doses administered at 4 and 24 hours after inoculation. Efficacy was measured in PD50 values, the dose of the drug in mg/kg required to protect 50% of the treated mice against otherwise lethal infections. These values were calculated based on the number of mice surviving a 4 day post-treatment holding period. The drugs were administered both orally (po) and subcutaneously (sc). The range quoted indicates the 95% confidence level for the PD50.

[16] = system: Past. multi. 59A006; assay: acute systemic infection in mice, PD50; format: in vivo; details: Mus musculus, 0.5, 4 and 24 h after inoculation, ± is 95% confidence
Experimental: as §1

[17] = system: Sal. cholsu. 58B242; assay: acute systemic infection in mice, PD50; format: in vivo; details: Mus musculus, 0.5, 4 and 24 h after inoculation, ± is 95% confidence
Experimental: as §1

[18] = system: swine dysentery; assay: prophylaxis of induced swine dysentery; format: in vivo; details: 25 ppm or 50 ppm in feed
From the text: (§2) In the prophylaxis of two induced diseases, swine dysentery and salmonellosis, excellent results have been obtained. […] In the salmonellosis model, 20 percent of the nonmedicated animals died and 50 percent of the survivors were unthrifty.

[19] = system: salmonellosis; assay: prophylaxis of induced salmonellosis; format: in vivo, swine; details: 50 ppm in feed
From the text: as §2

[20] = feed efficiency of swine; format: in vivo; details: 50 ppm in feed
[21] = tolerance in chicks; format: in vivo; details: 250 ppm
[22] = tolerance and pathological examination in swine; format: in vivo

SMILES	Primary in vitro Activity (MIC) [1]	Primary in vitro Activity (MIC) [2]	Primary in vitro Activity (MIC) [3]	Primary in vitro Activity (MIC) [4]	Primary in vitro Activity (MIC) [5]	Primary in vitro Activity (MIC) [6]	Primary in vitro Activity (MIC) [7]	Primary in vitro Activity (MIC) [8]	Primary in vitro Activity (MIC) [9]	Primary in vitro Activity (MIC) [10]	Primary in vitro Activity (MIC) [11]	Primary in vitro Activity (MIC) [12]	Primary in vitro Activity (MIC) [13]	further results
O=C(CCc1ccc(O)cc1)OCc1c[n+]([O-])c2ccccc2[n+]1[O-] [Compound 8]	12.5 µg/mL	12.5 µg/mL	100 µg/mL	50 µg/mL	6.25 µg/mL	6.25 µg/mL	6.25 µg/mL	200 µg/mL	100 µg/mL	50 µg/mL	6.25 µg/mL	< 100 µg/mL	50 µg/mL	–
O=C(OCc1c(CO)[n+]([O-])c2ccccc2[n+]1[O-])c1ccc(O)cc1 [Compound 4]	3.2 µg/mL	3.2 µg/mL	25 µg/mL	50 µg/mL	< 1.56 µg/mL	< 1.56 µg/mL	100 µg/mL	25 µg/mL	25 µg/mL	50 µg/mL	12.5 µg/mL	100 µg/mL	12.5 µg/mL	–
O=C(C=Cc1ccc(O)cc1)OCc1c(CO)[n+]([O-])c2ccccc2[n+]1[O-] [Compound 7]	6.25 µg/mL	6.25 µg/mL	12.5 µg/mL	12.5 µg/mL	12.5 µg/mL	0.78 µg/mL	50 µg/mL	12.5 µg/mL	25 µg/mL	25 µg/mL	1.56 µg/mL	12.5 µg/mL	25 µg/mL	–
O=C(CCc1ccc(O)cc1)OCc1c(CO)[n+]([O-])c2ccccc2[n+]1[O-] [Compound 5]	25 µg/mL	25 µg/mL	100 µg/mL	100 µg/mL	50 µg/mL	12.5 µg/mL	100 µg/mL	100 µg/mL	100 µg/mL	100 µg/mL	12.5 µg/mL	50 µg/mL	50 µg/mL	–
CC(=O)c1c(COC(=O)c2ccc(O)cc2)[n+]([O-])c2ccccc2[n+]1[O-] [Compound 1]	1.56 µg/mL	1.56 µg/mL	50 µg/mL	50 µg/mL	3.12 µg/mL	< 1.56 µg/mL	< 1.56 µg/mL	50 µg/mL	50 µg/mL	50 µg/mL	6.25 µg/mL	12.5 µg/mL	25 µg/mL	–
CC(=O)c1c(COC(=O)Cc2ccc(O)cc2)[n+]([O-])c2ccccc2[n+]1[O-] [Compound 3]	0.78 µg/mL	1.56 µg/mL	12.5 µg/mL	12.5 µg/mL	6.25 µg/mL	< 1.56 µg/mL	< 1.56 µg/mL	50 µg/mL	50 µg/mL	50 µg/mL	< 1.56 µg/mL	12.5 µg/mL	6.25 µg/mL	–
CC(=O)c1c(COC(=O)CCc2ccc(O)cc2)[n+]([O-])c2ccccc2[n+]1[O-] [Compound 10, 2-acetyl-3-Hydroxymethyl-Quinoxaline-1,4-Dioxide-p-Hydroxyphenylpropionic Acid Ester]	< 0.39 µg/mL	< 0.39 µg/mL	25 µg/mL	6.25 µg/mL	< 0.39 µg/mL	< 0.39 µg/mL	< 0.39 µg/mL	12.5 µg/mL	50 µg/mL	50 µg/mL	1.56 µg/mL	25 µg/mL	12.5 µg/mL	MIC [14]: 0.19 µg/mL (≈ 0.497 µM); ED50 ([15]; po): 7.6 ± 4.7 mg/kg; ED50 ([15]; sc): 13.3 ± 8.6 mg/kg; ED50 ([16]; po): 13 ± 1.6 mg/kg; ED50 ([16]; sc): 13 ± 1.6 mg/kg; ED50 ([17]; po): 8.4 ± 3.2 mg/kg; ED50 ([17]; sc): 6.9 ± 3.1 mg/kg; morbidity in dysentery model ([18]; nonmedicated: 100 percent): no deaths or morbidity; mortality in dysentery model ([18]; nonmedicated: average 36 percent): no deaths; mortality in salmonellosis model ([19]; nonmedicated: 20 percent died): none of the animals on a feed containing 50 ppm of Compound 10 died; animals judged unthrifty in salmonellosis model ([19]; nonmedicated: 50 percent of survivors): 30%; increase in feed efficiency of swine [20]: 3%; tolerance in chicks [21]: extremely well tolerated; tolerance in swine ([22]; 150 ppm): The same results are observed in swine; adverse effects on pathological examination ([22]; swine, 50 ppm in feed): no adverse effects
CC(=O)c1c(COC(=O)c2cccc(O)c2)[n+]([O-])c2ccccc2[n+]1[O-] [Compound 2]	12.5 µg/mL	6.25 µg/mL	< 100 µg/mL	50 µg/mL	25 µg/mL	< 1.56 µg/mL	< 100 µg/mL	< 100 µg/mL	< 100 µg/mL	< 100 µg/mL	3.2 µg/mL	12.5 µg/mL	25 µg/mL	–
O=C(Cc1ccc(O)cc1)OCc1c[n+]([O-])c2ccccc2[n+]1[O-] [Compound 9]	6.25 µg/mL	12.5 µg/mL	50 µg/mL	25 µg/mL	3.12 µg/mL	6.25 µg/mL	6.25 µg/mL	25 µg/mL	50 µg/mL	12.5 µg/mL	3.12 µg/mL	50 µg/mL	12.5 µg/mL	–
O=C(Cc1ccc(O)cc1)OCc1c(CO)[n+]([O-])c2ccccc2[n+]1[O-] [Compound 6]	1.56 µg/mL	1.56 µg/mL	12.5 µg/mL	12.5 µg/mL	< 1.56 µg/mL	< 1.56 µg/mL	12.5 µg/mL	25 µg/mL	25 µg/mL	25 µg/mL	1.56 µg/mL	12.5 µg/mL	25 µg/mL	–
